Consider 22 compounds from patent US12234220B2, “Immunomodulatory compounds” (DANA-FARBER CANCER INSTITUTE, INC., priority 2018, dated 2025).

Like-named read-outs stand apart in the source and are kept apart here.

The target in the assay is DDB1AB-CRBN (Homo sapiens, UniProt Q96SW2). Description: Lenalidomide displacement assay (Atto565-Lenalidomide fluorescence polarization). The assay is classed as binding. The conditions noted are these: for Ki: calculated from IC50 with probe Kd of 40 nM, competitive model, read-out: CRBN Binding Ki; for binding affinity with CRBN, in words: fluorescence polarization assay, compared to lenalidomide control, FIG. 1A. The protocol:
Compound titrations were incubated for 60 min at RT. The change in fluorescence polarization was monitored using a PHERAstar® FS microplate reader (BMG Labtech) for 1 h in 120 s cycles.

[1] abbreviates: Table 1, n=2, 10 nM Atto565-Lenalidomide probe, 100 nM DDB1AB-CRBN, read-out: CRBN Binding IC50.
[2] abbreviates: Table 1, n=2, 10 nM Atto565-Lenalidomide probe, 100 nM DDB1AB-CRBN.
Setting [3] is: refers to Tables 1 and 2, FIG. 1A/1B, read-out: IC50.

Chain of DDB1AB-CRBN (Q96SW2 whole entry): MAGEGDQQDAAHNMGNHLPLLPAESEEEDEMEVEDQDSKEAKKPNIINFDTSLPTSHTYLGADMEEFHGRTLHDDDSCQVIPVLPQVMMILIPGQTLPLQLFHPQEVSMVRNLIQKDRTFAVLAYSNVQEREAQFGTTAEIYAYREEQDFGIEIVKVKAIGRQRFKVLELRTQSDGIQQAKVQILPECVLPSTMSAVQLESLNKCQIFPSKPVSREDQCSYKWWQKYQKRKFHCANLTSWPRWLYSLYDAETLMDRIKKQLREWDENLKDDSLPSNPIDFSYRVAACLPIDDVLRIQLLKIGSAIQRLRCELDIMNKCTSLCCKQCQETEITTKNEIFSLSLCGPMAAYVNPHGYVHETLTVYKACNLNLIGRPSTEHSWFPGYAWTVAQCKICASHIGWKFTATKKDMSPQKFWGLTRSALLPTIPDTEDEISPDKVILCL

For the compound `O=C1CCC(NC(=O)c2cccc(OCc3ccccc3)n2)C(=O)N1` (stereo not drawn) [Compound 1, 6-(benzyloxy)-N-(2,6-dioxopiperidin-3-yl)picolinamide], the Ki (usually the dissociation constant of the complex between target and ligand, obtained from inhibition or displacement) (Table 1) was 15.7 µM. The IC50 (as a rule, the midpoint of a concentration-inhibition curve) under setting [1] stood at 55 µM.

With `Nc1cccc(C(=O)NC2CCC(=O)NC2=O)n1` (stereo not drawn) [Compound 3, 6-amino-N-(2,6-dioxopiperidin-3-yl)picolinamide], the “binding affinity with CRBN, in words” value is listed as “moderate binding affinity”. Further, the “CRBN Binding, probe displacement at single concentration” value (from here on “CRBN Binding, probe displacement”) (at 100 μM) came out at 30% at 100 μM.

For the compound `O=C1CCC(NC(=O)c2cc(Cl)ccn2)C(=O)N1` (stereo not drawn) [Compound 4, 4-chloro-N-(2,6-dioxopiperidin-3-yl)picolinamide], the “binding affinity with CRBN, in words” value is reported as “moderate binding affinity”. The “CRBN Binding, probe displacement” value (at 100 μM) is reported as 30% at 100 μM.

As for `O=C1CCC(NC(=O)c2ccnc(NCc3ccccc3)n2)C(=O)N1` (stereo not drawn) [Compound 5, 2-(benzylamino)-N-(2,6-dioxopiperidin-3-yl)pyrimidine-4-carboxamide], the “binding affinity with CRBN, in words” value is reported as “moderate binding affinity”. For the same compound, under “Table 1”, the Ki is 32.5 µM. Further, under setting [1], the IC50 came to 113 µM.

`COc1cccc(C(=O)NC2CCC(=O)NC2=O)n1` (stereo not drawn) [Compound 6, N-(2,6-dioxopiperidin-3-yl)-6-methoxypicolinamide]: the “CRBN Binding IC50” value under setting [2] is listed as “Inactive”.

`O=C1CCC(NC(=O)c2ccnc(OCc3ccccc3)n2)C(=O)N1` (stereo not drawn) [Compound 7, 2-(benzyloxy)-N-(2,6-dioxopiperidin-3-yl)pyrimidine-4-carboxamide]: where the note is “Table 1”, the Ki is 8.3 µM. Further, under setting [1], the IC50 was 29 µM.

Take `O=C1CCC(NC(=O)c2cccc3cccnc23)C(=O)N1` (stereo not drawn) [Compound 8, N-(2,6-dioxopiperidin-3-yl)quinoline-8-carboxamide]: the Ki (Table 1) was 4 µM. The IC50 under setting [1] is 14 µM.

Turning to `O=C1CCC(NC(=O)c2ccc(OCc3ccc(CN4CCOCC4)cc3)cn2)C(=O)N1` (stereo not drawn) [Compound 11, N-(2,6-dioxopiperidin-3-yl)-5-((4-(morpholinomethyl)benzyl)oxy)picolinamide], for the setting “at 100 μM”, the “CRBN Binding, probe displacement” value is listed as 50% at 100 μM.

With `O=C1CCC(NC(=O)c2ccc[nH]c2=O)C(=O)N1` (stereo not drawn) [Compound 19, N-(2,6-dioxopiperidin-3-yl)-2-oxo-1,2-dihydropyridine-3-carboxamide], where the note is “Table 1”, the inhibitory constant (Ki) is 15 µM. Besides, the IC50 under setting [1] stood at 53 µM.

Consider `Cn1cccc(C(=O)NC2CCC(=O)NC2=O)c1=O` (stereo not drawn) [Compound 20, N-(2,6-dioxopiperidin-3-yl)-1-methyl-2-oxo-1,2-dihydropyridine-3-carboxamide], for which, under “Table 1”, the Ki is 66 µM. Moreover, the IC50 under setting [1] is 231 µM.

Consider `O=C1CCC(NC(=O)c2cccn(-c3ccccc3)c2=O)C(=O)N1` (stereo not drawn) [Compound 21, N-(2,6-dioxopiperidin-3-yl)-2-oxo-1-phenyl-1,2-dihydropyridine-3-carboxamide], for which the Ki (Table 1) was 20.6 µM. Also, the IC50 under setting [1] was determined as 72 µM.

Turning to `O=C1CCC(NC(=O)c2cccn(Cc3ccccc3)c2=O)C(=O)N1` (stereo not drawn) [Compound 22, 1-Benzyl-N-(2,6-dioxopiperidin-3-yl)-2-oxo-1,2-dihydropyridine-3-carboxamide], where the note is “Table 1”, the Ki is 15 µM. Moreover, the IC50 under setting [1] worked out at 53 µM.

As to `Nc1ccc(C(=O)NC2CCC(=O)NC2=O)c2ncccc12` (stereo not drawn) [Compound 23, 5-Amino-N-(2,6-dioxopiperidin-3-yl) quinoline-8-carboxamide], the Ki (Table 1) was 0.8 µM. Besides, under setting [3], the IC50 was determined as 2.9 µM.

`Nc1ccnc2c(C(=O)NC3CCC(=O)NC3=O)cccc12` (stereo not drawn) [Compound 24, 4-Amino-N-(2,6-dioxopiperidin-3-yl)quinoline-8-carboxamide]: the Ki (Table 1) is 2.2 µM. Further, the 50% inhibitory concentration (IC50) under setting [3] was 7.7 µM.

`Nc1cnc2c(C(=O)NC3CCC(=O)NC3=O)cccc2c1` (stereo not drawn) [Compound 25, 3-Amino-N-(2,6-dioxopiperidin-3-yl)quinoline-8-carboxamide]: the Ki (Table 1) was 5 µM. For the same compound, the concentration for half-maximal inhibition (IC50) under setting [1] was 17.5 µM.

With `O=C1CCC(NC(=O)c2cccc3c(O)ccnc23)C(=O)N1` (stereo not drawn) [Compound 26, N-(2,6-dioxopiperidin-3-yl)-4-hydroxyquinoline-8-carboxamide], for the setting “at 100 μM”, the “CRBN Binding, probe displacement” value was 50% at 100 μM and the “probe displacement” value stood at 50%.

For the compound `Nc1ccc(NC(=O)NC2CCC(=O)NC2=O)nc1` (stereo not drawn) [Compound 27, 1-(5-aminopyridin-2-yl)-3-(2,6-dioxopiperidin-3-yl)urea], the “CRBN Binding, probe displacement” value (at 100 μM) is 50% at 100 μM.

With `O=C1CCC(NC(=O)Nc2ccc(O)cn2)C(=O)N1` (stereo not drawn) [Compound 28, 1-(2,6-Dioxopiperidin-3-yl)-3-(5-hydroxypyridin-2-yl)urea], the “CRBN Binding IC50” value under setting [2] is “inactive”.

As to `O=C1CCC(NC(=O)Nc2cccc3c2NCC3)C(=O)N1` (stereo not drawn) [Compound 29, 1-(2,6-Dioxopiperidin-3-yl)-3-(indolin-7-yl)urea], the “CRBN Binding IC50” value under setting [2] was “inactive”.

Turning to `O=C1CCC(NC(=O)c2cccc3c2NCC3)C(=O)N1` (stereo not drawn) [Compound 30, N-(2,6-dioxopiperidin-3-yl)indoline-7-carboxamide], under “at 100 μM”, the “CRBN Binding, probe displacement” value is 50% at 100 μM.

Take `O=C1CCC(NC(=O)c2cccc3nc[nH]c23)C(=O)N1` (stereo not drawn) [Compound 31, N-(2,6-dioxopiperidin-3-yl)-1H-benzo[d]imidazole-4-carboxamide]: the Ki (Table 1) was 10.7 µM. Also, the IC50 under setting [1] came out at 37.6 µM.

As for `O=C1CCC(NC(=O)c2cccc(OCc3ccc(CN4CCOCC4)cc3)n2)C(=O)N1` (stereo not drawn) [Compound 32, N-(2,6-dioxopiperidin-3-yl)-6-((4-(morpholinomethyl)benzyl)oxy)picolinamide], for the setting “Table 1”, the Ki is 11.4 µM. Further, the IC50 under setting [1] is 40 µM.
